Values of other authors in PMC9899610 (Cancer Science, 2022).
Read-outs that look alike come from different tables or passages of the source.

System: patients with advanced or metastatic cholangiocarcinoma; urothelial carcinoma
Details: cited from earlier work
[1] = patients with advanced or metastatic cholangiocarcinoma

SMILES | Hyperphosphatemia, patients (patients with urothelial carcinoma) | Patients who discontinued treatment because of retinal detachment (phase II study) | Retinal AEs requiring dose interruption or treatment discontinuation | Hyperphosphatemia, patients [1]
COc1cc(OC)cc(N(CCNC(C)C)c2ccc3ncc(-c4cnn(C)c4)nc3c2)c1 [erdafitinib] | 77% | 13% |  | 
CCN1CCN(c2ccc(Nc3cc(N(C)C(=O)Nc4c(Cl)c(OC)cc(OC)c4Cl)ncn3)cc2)CC1 [infigratinib] |  |  | two discontinuations | 77%
CCN1C(=O)N(c2c(F)c(OC)cc(OC)c2F)Cc2cnc3[nH]c(CN4CCOCC4)cc3c21 [pemigatinib] |  |  | one dose interruption | 60%
